Measurements reported in patent US10493091B2, “Method for storing P1, P4-bis(5′-uridyl)teraphosphate crystals” (Yamasa Corporation, priority 2015, dated 2019).

Key:
[1] = pH measurement of UP4U crystals (crystal pH); format: physicochemical; conditions: 1.0 g dissolved in 20 mL distilled water
Description: The term crystal pH in the present invention refers to the value of pH of crystals measured with 1 g of crystals dissolved in 20 mL of water. The control of the pH of UP4U crystals within a desired range of values is possible, for example, by controlling the pH of an original solution for use in crystallization. To control the pH, it is sufficient to use, as necessary, an arbitrary acid or alkali capable of being used for production of raw materials or the like for pharmaceutical products. An arbitrary one selected from hydrochloric acid, nitric acid, phosphoric acid, and so on can be used as the acid and an arbitrary one selected from sodium hydroxide, sodium carbonate, sodium hydrogen carbonate, and so on can be used as the alkali.
Control of UP4U Crystals with Different pHs UP4U crystals prepared by a known method were dissolved in deionized water. Various phosphoric acid aqueous solutions or sodium hydroxide aqueous solutions were each added to the solution containing UP4U dissolved therein to prepare solutions having different pHs (hereinafter, referred to as “original solutions”).
Ethanol was put into each of the original solutions to make the original solution lightly cloudy, followed by addition of a small amount of UP4U crystals and stirring for a dozen hours. After confirmation of crystal precipitation, ethanol was further put into each of the solutions, the solution was stirred, and crystals were then separated from the solution using a centrifuge. The obtained various crystals were dried with a circulation dryer to prepare various UP4U crystals having different pHs.
(pH Measurement) Water was sufficiently boiled and then cooled in a state where a carbon dioxide absorption tube was connected, thus preparing distilled water. An amount of 1.0 g of each test sample was dissolved in 20 mL of the prepared distilled water. The pH (crystal pH) of this solution was measured.

[2] = Stability test of packed UP4U crystals, four weeks of storage, HPLC purity; format: physicochemical; conditions: for decrease in HPLC purity: regardless of the crystal pH
Description: (Packing of Test Sample) An amount of approximately 20 mg of each test sample was put into a pouch made of low-density polyethylene and sealed by heat sealing. This pouch was further put into a pouch made of low-density polyethylene and sealed by heat sealing. This pouch was still further put into a pouch made of low-density polyethylene and sealed by heat sealing. This pouch was put into a pouch made of aluminum-metallized film and sealed by heat sealing, thus preparing a sample for stability test. (Stability Test) Packed samples were put into thermostatic baths at 5° C., 25° C., 40° C., and 60° C., respectively, and stored for four weeks. (Analysis) For each sample zero days after the start of the stability test and samples of the same type at four weeks of storage at the different temperatures, the packing by sealing was opened and each of the test samples was dissolved in deionized water. This solution was analyzed by HPLC and, based on the analysis result, evaluated in terms of stability. The conditions of the measurement using HPLC in this analysis were as follows. [table] The evaluation was made by defining the value obtained by subtracting the HPLC purity (%) of crystals zero days after the start of the stability test from the HPLC purity (%) of the crystals at four weeks of storage as a rate of change (%).

Compound: O=c1ccn([C@@H]2O[C@H](COP(=O)(O)OP(=O)(O)OP(=O)(O)OP(=O)(O)OC[C@H]3O[C@@H](n4ccc(=O)[nH]c4=O)[C@H](O)[C@@H]3O)[C@@H](O)[C@H]2O)c(=O)[nH]1 [UP4U crystals, P^1,P^4-bis(5′-uridyl)tetraphosphate]
- Crystal pH ([1]; original liquid pH 2.50): 4.60
- Crystal pH ([1]; original liquid pH 3.00): 5.16
- Crystal pH ([1]; original liquid pH 3.50): 5.54
- Crystal pH ([1]; original liquid pH 4.00): 5.64
- Crystal pH ([1]; original liquid pH 5.50): 5.97
- Crystal pH ([1]; original liquid pH 6.50): 6.32
- Crystal pH ([1]; original liquid pH 7.40): 6.66
- Crystal pH ([1]; original liquid pH 7.80): 6.91
- Crystal pH ([1]; original liquid pH 8.00): 7.12
- Crystal pH ([1]; original liquid pH 8.10): 7.43
- Crystal pH ([1]; original liquid pH 8.20): 7.97
- rate of change in HPLC purity ([2]; 5° C., four weeks of storage, crystal pH 4.60): 0.01%
- rate of change in HPLC purity ([2]; 5° C., four weeks of storage, crystal pH 5.16): 0.00%
- rate of change in HPLC purity ([2]; 5° C., four weeks of storage, crystal pH 5.54): 0.00%
- rate of change in HPLC purity ([2]; 5° C., four weeks of storage, crystal pH 5.64): 0.00%
- rate of change in HPLC purity ([2]; 5° C., four weeks of storage, crystal pH 5.97): 0.00%
- rate of change in HPLC purity ([2]; 5° C., four weeks of storage, crystal pH 6.32): 0.00%
- rate of change in HPLC purity ([2]; 5° C., four weeks of storage, crystal pH 6.66): −0.01%
- rate of change in HPLC purity ([2]; 5° C., four weeks of storage, crystal pH 6.91): 0.00%
- rate of change in HPLC purity ([2]; 5° C., four weeks of storage, crystal pH 7.12): 0.00%
- rate of change in HPLC purity ([2]; 5° C., four weeks of storage, crystal pH 7.43): 0.01%
- rate of change in HPLC purity ([2]; 5° C., four weeks of storage, crystal pH 7.97): 0.03%
- rate of change in HPLC purity ([2]; 25° C., four weeks of storage, crystal pH 4.60): −0.01%
- rate of change in HPLC purity ([2]; 25° C., four weeks of storage, crystal pH 5.16): −0.02%
- rate of change in HPLC purity ([2]; 25° C., four weeks of storage, crystal pH 5.54): −0.02%
- rate of change in HPLC purity ([2]; 25° C., four weeks of storage, crystal pH 5.64): −0.01%
- rate of change in HPLC purity ([2]; 25° C., four weeks of storage, crystal pH 5.97): −0.02%
- rate of change in HPLC purity ([2]; 25° C., four weeks of storage, crystal pH 6.32): −0.01%
- rate of change in HPLC purity ([2]; 25° C., four weeks of storage, crystal pH 6.66): −0.03%
- rate of change in HPLC purity ([2]; 25° C., four weeks of storage, crystal pH 6.91): −0.02%
- rate of change in HPLC purity ([2]; 25° C., four weeks of storage, crystal pH 7.12): −0.02%
- rate of change in HPLC purity ([2]; 25° C., four weeks of storage, crystal pH 7.43): −0.01%
- rate of change in HPLC purity ([2]; 25° C., four weeks of storage, crystal pH 7.97): −0.01%
- rate of change in HPLC purity ([2]; 40° C., four weeks of storage, crystal pH 4.60): −0.05%
- rate of change in HPLC purity ([2]; 40° C., four weeks of storage, crystal pH 5.16): −0.04%
- rate of change in HPLC purity ([2]; 40° C., four weeks of storage, crystal pH 5.54): −0.03%
- rate of change in HPLC purity ([2]; 40° C., four weeks of storage, crystal pH 5.64): −0.02%
- rate of change in HPLC purity ([2]; 40° C., four weeks of storage, crystal pH 5.97): −0.03%
- rate of change in HPLC purity ([2]; 40° C., four weeks of storage, crystal pH 6.32): −0.02%
- rate of change in HPLC purity ([2]; 40° C., four weeks of storage, crystal pH 6.66): −0.04%
- rate of change in HPLC purity ([2]; 40° C., four weeks of storage, crystal pH 6.91): −0.04%
- rate of change in HPLC purity ([2]; 40° C., four weeks of storage, crystal pH 7.12): −0.08%
- rate of change in HPLC purity ([2]; 40° C., four weeks of storage, crystal pH 7.43): −0.15%
- rate of change in HPLC purity ([2]; 40° C., four weeks of storage, crystal pH 7.97): −0.12%
- rate of change in HPLC purity ([2]; 60° C., four weeks of storage, crystal pH 4.60): −0.25%
- rate of change in HPLC purity ([2]; 60° C., four weeks of storage, crystal pH 5.16): −0.08%
- rate of change in HPLC purity ([2]; 60° C., four weeks of storage, crystal pH 5.54): −0.07%
- rate of change in HPLC purity ([2]; 60° C., four weeks of storage, crystal pH 5.64): −0.07%
- rate of change in HPLC purity ([2]; 60° C., four weeks of storage, crystal pH 5.97): −0.08%
- rate of change in HPLC purity ([2]; 60° C., four weeks of storage, crystal pH 6.32): −0.14%
- rate of change in HPLC purity ([2]; 60° C., four weeks of storage, crystal pH 6.66): −0.18%
- rate of change in HPLC purity ([2]; 60° C., four weeks of storage, crystal pH 6.91): −0.24%
- rate of change in HPLC purity ([2]; 60° C., four weeks of storage, crystal pH 7.12): −0.46%
- rate of change in HPLC purity ([2]; 60° C., four weeks of storage, crystal pH 7.43): −0.50%
- rate of change in HPLC purity ([2]; 60° C., four weeks of storage, crystal pH 7.97): −0.87%
- rate of change in HPLC purity ([2]; four weeks, one of: (1) 0° C. or more and less than 25° C., (2) 25° C. or more and less than 40° C. and crystal pH 4.5 to 8.0, (3) 40° C. or more and less than 60° C. and crystal pH 5.0 to 6.4): ≤ 0.15%
- rate of change in HPLC purity ([2]; four weeks, one of: (4) 0° C. or more and less than 25° C., (5) 25° C. or more and less than 40° C. and crystal pH 4.5 to 7.4, (6) 40° C. or more and less than 60° C. and crystal pH 5.2 to 6.2): ≤ 0.10%
- rate of change in HPLC purity ([2]; four weeks, one of: (7) 0° C. or more and less than 25° C., (8) 25° C. or more and less than 40° C. and crystal pH 4.6 to 6.6): ≤ 0.05%
- decrease in HPLC purity ([2]; storage temperature 0° C. or more and less than 25° C.): substantially no decrease
- decrease in HPLC purity ([2]; storage temperature of 60° C. or more): may significantly decrease
